# Literature values in PubChem BioAssay AID1259409 (Chemical Carcinogenesis Research Information System (CCRIS), 2018).
# Several values for one entry are separate records, joined by “and”; a condition that tells them apart may be missing. Identical values can stand only once.
# System: rodent chemically induced tumor inhibition, incidence and multiplicity
# Experiment: CCRIS tumor inhibitor studies
structure (smiles),measurement,setting,value
C#C[C@]1(O)CC[C@H]2[C@@H]3CCc4cc(O)ccc4[C@H]3CC[C@@]21C,"tumour outcome (control, treated, inhibition, significance)","Carcinogen: N-METHYL-N-NITROSOUREA, 684-93-5, Dose [Inhibitor]: 0, 0.001% IN DIET BEGINNING POST CARCINOGEN TREATMENT AND CONTINUING FOR 23 WK (STUDY DURATION: 25 WK), Route [Inhibitor]: ORAL, Species: RAT, Strain/Sex: F344/MALE, Target Tissue: Type of Lesion: FORESTOMACH: PAPILLOMA, Dose [Carcinogen]: 50 MG/KG 4/2 WK, Promoter: NONE USED","8/17 (47%), 4/20 (20%), 57%, not calculated"
same,"tumour outcome (control, treated, inhibition, significance)","Carcinogen: N-METHYL-N-NITROSOUREA, 684-93-5, Dose [Inhibitor]: 0, 0.001% IN DIET BEGINNING POST CARCINOGEN TREATMENT AND CONTINUING FOR 23 WK (STUDY DURATION: 25 WK), Route [Inhibitor]: ORAL, Species: RAT, Strain/Sex: F344/MALE, Target Tissue: Type of Lesion: FORESTOMACH: SQUAMOUS CELL CARCINOMA, Dose [Carcinogen]: 50 MG/KG 4/2 WK, Promoter: NONE USED","2/17 (12%), 2/20 (10%), 17%, not calculated"
same,"tumour outcome (control, treated, inhibition, significance)","Carcinogen: N-METHYL-N-NITROSOUREA, 684-93-5, Dose [Inhibitor]: 0, 0.001% IN DIET BEGINNING POST CARCINOGEN TREATMENT AND CONTINUING FOR 23 WK (STUDY DURATION: 25 WK), Route [Inhibitor]: ORAL, Species: RAT, Strain/Sex: F344/MALE, Target Tissue: Type of Lesion: HEMATOPOIETIC SYSTEM: LYMPHOMA OR LEUKEMIA, Dose [Carcinogen]: 50 MG/KG 4/2 WK, Promoter: NONE USED","3/17 (18%), 0/20 (0%), 100%, not calculated"
same,"tumour outcome (control, treated, inhibition, significance)","Carcinogen: N-METHYL-N-NITROSOUREA, 684-93-5, Dose [Inhibitor]: 0, 0.001% IN DIET BEGINNING POST CARCINOGEN TREATMENT AND CONTINUING FOR 23 WK (STUDY DURATION: 25 WK), Route [Inhibitor]: ORAL, Species: RAT, Strain/Sex: F344/MALE, Target Tissue: Type of Lesion: SMALL INTESTINE: ADENOCARCINOMA, Dose [Carcinogen]: 50 MG/KG 4/2 WK, Promoter: NONE USED","9/17 (53%), 0/20 (0%), 100%, not calculated"
same,"tumour outcome (control, treated, inhibition, significance)","Carcinogen: N-METHYL-N-NITROSOUREA, 684-93-5, Dose [Inhibitor]: 0, 0.001% IN DIET BEGINNING POST CARCINOGEN TREATMENT AND CONTINUING FOR 23 WK (STUDY DURATION: 25 WK), Route [Inhibitor]: ORAL, Species: RAT, Strain/Sex: F344/MALE, Target Tissue: Type of Lesion: SMALL INTESTINE: ADENOMA, Dose [Carcinogen]: 50 MG/KG 4/2 WK, Promoter: NONE USED","10/17 (59%), 7/20 (35%), 41%, not calculated"
same,"tumour outcome (control, treated, inhibition, significance)","Carcinogen: N-METHYL-N-NITROSOUREA, 684-93-5, Dose [Inhibitor]: 0, 0.001% IN DIET BEGINNING POST CARCINOGEN TREATMENT AND CONTINUING FOR 23 WK (STUDY DURATION: 25 WK), Route [Inhibitor]: ORAL, Species: RAT, Strain/Sex: F344/MALE, Target Tissue: Type of Lesion: THYROID: ADENOCARCINOMA, Dose [Carcinogen]: 50 MG/KG 4/2 WK, Promoter: NONE USED","1/17 (6%), 0/20 (0%), 100%, not calculated"
same,"tumour outcome (control, treated, inhibition, significance)","Carcinogen: N-METHYL-N-NITROSOUREA, 684-93-5, Dose [Inhibitor]: 0, 0.001% IN DIET BEGINNING POST CARCINOGEN TREATMENT AND CONTINUING FOR 23 WK (STUDY DURATION: 25 WK), Route [Inhibitor]: ORAL, Species: RAT, Strain/Sex: F344/MALE, Target Tissue: Type of Lesion: THYROID: ADENOMA, Dose [Carcinogen]: 50 MG/KG 4/2 WK, Promoter: NONE USED","3/17 (18%), 0/20 (0%), 100%, not calculated"
same,"tumour outcome (control, treated, inhibition, significance)","Carcinogen: N-METHYL-N-NITROSOUREA, 684-93-5, Dose [Inhibitor]: 0, 0.001% IN DIET BEGINNING POST CARCINOGEN TREATMENT AND CONTINUING FOR 23 WK (STUDY DURATION: 25 WK), Route [Inhibitor]: ORAL, Species: RAT, Strain/Sex: F344/MALE, Target Tissue: Type of Lesion: TONGUE: PAPILLOMA, Dose [Carcinogen]: 50 MG/KG 4/2 WK, Promoter: NONE USED","2/17 (12%), 2/20 (10%), 16%, not calculated"
same,"tumour outcome (control, treated, inhibition, significance)","Carcinogen: N-METHYL-N-NITROSOUREA, 684-93-5, Dose [Inhibitor]: 0, 0.001% IN DIET BEGINNING POST CARCINOGEN TREATMENT AND CONTINUING FOR 23 WK (STUDY DURATION: 25 WK), Route [Inhibitor]: ORAL, Species: RAT, Strain/Sex: F344/MALE, Target Tissue: Type of Lesion: TONGUE: SQUAMOUS CELL CARCINOMA, Dose [Carcinogen]: 50 MG/KG 4/2 WK, Promoter: NONE USED","2/17 (12%), 0/20 (0%), 100%, not calculated"
same,"tumour outcome (control, treated, inhibition, significance)","Carcinogen: N-METHYL-N-NITROSOUREA, 684-93-5, Dose [Inhibitor]: 0, 0.001% IN DIET BEGINNING POST CARCINOGEN TREATMENT AND CONTINUING FOR 23 WK (STUDY DURATION: 25 WK), Route [Inhibitor]: ORAL, Species: RAT, Strain/Sex: F344/MALE, Target Tissue: Type of Lesion: URINARY BLADDER: PAPILLOMA, Dose [Carcinogen]: 50 MG/KG 4/2 WK, Promoter: NONE USED","2/17 (18%), 0/20 (0%), 100%, not calculated"
CCN(CC)CCCCCCCCOC(=O)c1cc(OC)c(OC)c(OC)c1,"tumour outcome (control, treated, inhibition, significance)","Carcinogen: 7,12-DIMETHYLBENZ[A]ANTHRACENE, 57-97-6, Dose [Inhibitor]: 0, 1.1 UMOL 1/WK FOR 27 WK APPLIED 1 HR POST EACH PROMOTER DOSE (STUDY DURATION: 27 WK), Route [Inhibitor]: DERMAL, Species: MOUSE, Strain/Sex: SENCAR/FEMALE, Target Tissue: Type of Lesion: SKIN: PAPILLOMA, Dose [Carcinogen]: 25 NMOL ONCE, Promoter: CHRYSAROBIN, 491-58-7","85%, 73%, 14%, not significant"
same,"tumour outcome (control, treated, inhibition, significance)","Carcinogen: 7,12-DIMETHYLBENZ[A]ANTHRACENE, 57-97-6, Dose [Inhibitor]: 0, 4.4 UMOL 1/WK FOR 27 WK APPLIED 1 HR POST EACH PROMOTER DOSE (STUDY DURATION: 27 WK), Route [Inhibitor]: DERMAL, Species: MOUSE, Strain/Sex: SENCAR/FEMALE, Target Tissue: Type of Lesion: SKIN: PAPILLOMA, Dose [Carcinogen]: 25 NMOL ONCE, Promoter: CHRYSAROBIN, 491-58-7","85%, 82%, 4%, not significant"
CCCCCCCCCCCCCCCCCCN,"tumour outcome (control, treated, inhibition, significance)","Carcinogen: 7,12-DIMETHYLBENZ[A]ANTHRACENE, 57-97-6, Dose [Inhibitor]: 0, 0.01% IN 20% CORN OIL DIET BEGINNING 1 WK POST CARCINOGEN DOSE (STUDY DURATION: 17 WK), Route [Inhibitor]: ORAL, Species: RAT, Strain/Sex: SPRAGUE-DAWLEY/FEMALE, Target Tissue: Type of Lesion: MAMMARY GLAND: ADENOCARCINOMA, Dose [Carcinogen]: 5 MG IN 0.5 ML OLIVE OIL ONCE, Promoter: NONE USED","57%, 57%, 0%, not significant"
same,"tumour outcome (control, treated, inhibition, significance)","Carcinogen: 7,12-DIMETHYLBENZ[A]ANTHRACENE, 57-97-6, Dose [Inhibitor]: 0, 0.1% IN 20% CORN OIL DIET BEGINNING 1 WK POST CARCINOGEN DOSE (STUDY DURATION: 17 WK), Route [Inhibitor]: ORAL, Species: RAT, Strain/Sex: SPRAGUE-DAWLEY/FEMALE, Target Tissue: Type of Lesion: MAMMARY GLAND: ADENOCARCINOMA, Dose [Carcinogen]: 5 MG IN 0.5 ML OLIVE OIL ONCE, Promoter: NONE USED","57%, 14%, 75%, p<0.001"
O=c1ccc2ccc(O)cc2o1,"tumour outcome (control, treated, inhibition, significance)","Carcinogen: 7,12-DIMETHYLBENZ[A]ANTHRACENE, 57-97-6, Dose [Inhibitor]: 0.034 MMOL/G IN DIET FOR 8 D BEGINNING 7 D PRIOR TO CARCINOGEN DOSE (STUDY DURATION: 23 WK), Route [Inhibitor]: ORAL, Species: RAT, Strain/Sex: SPRAGUE-DAWLEY/FEMALE, Target Tissue: Type of Lesion: MAMMARY GLAND: TUMOR, Dose [Carcinogen]: 12 MG IN 1.0 ML OLIVE OIL ONCE, Promoter: NONE USED","93%, 93%, 0%, not significant"
same,"tumour outcome (control, treated, inhibition, significance)","Carcinogen: BENZO[A]PYRENE, 50-32-8, Dose [Inhibitor]: 0.034 MMOL/G IN DIET FOR 5 WK BEGINNING 1 WK PRIOR TO FIRST CARCINOGEN DOSE (STUDY DURATION: 21 WK), Route [Inhibitor]: ORAL, Species: MOUSE, Strain/Sex: ICR/FEMALE, Target Tissue: Type of Lesion: FORESTOMACH: TUMOR, Dose [Carcinogen]: 1 MG IN 0.2 ML CORN OIL 2/WK FOR 4 WK, Promoter: NONE USED","100%, 95%, 5%, not significant and 90%, 95%,-5%, not significant and 95%, 100%, -5%, not significant"
same,"tumour outcome (control, treated, inhibition, significance)","Carcinogen: BENZO[A]PYRENE, 50-32-8, Dose [Inhibitor]: 0.068 MMOL/G IN DIET FOR 5 WK BEGINNING 1 WK PRIOR TO FIRST CARCINOGEN DOSE (STUDY DURATION: 21 WK), Route [Inhibitor]: ORAL, Species: MOUSE, Strain/Sex: ICR/FEMALE, Target Tissue: Type of Lesion: FORESTOMACH: TUMOR, Dose [Carcinogen]: 1 MG IN 0.2 ML CORN OIL 2/WK FOR 4 WK, Promoter: NONE USED","100%, 95%, 5%, not significant"
CC1(C)CC[C@]2(CO)CC[C@]3(C)C(=CC[C@@H]4[C@@]5(C)CC[C@H](O)[C@@](C)(CO)[C@@H]5CC[C@]43C)[C@@H]2C1,"tumour outcome (control, treated, inhibition, significance)","Carcinogen: 7,12-DIMETHYLBENZ[A]ANTHRACENE, 57-97-6, Dose [Inhibitor]: 81 NMOL IN 100 µL ACETONE/DMSO (99:1) APPLIED 40 MIN PRIOR TO EACH PROMOTER DOSE (STUDY DURATION: 18 WK), Route [Inhibitor]: DERMAL, Species: MOUSE, Strain/Sex: ICR, Target Tissue: Type of Lesion: SKIN: CARCINOMA, Dose [Carcinogen]: 100 UG ONCE, Promoter: 12-O-TETRADECANOYLPHORBOL-13-ACETATE, 16561-29-8","100%, 40%, 60%, not calculated"
